The target in one test is T1, Matrilysin (Homo sapiens, UniProt P09237).
T1 sequence (P09237 whole entry): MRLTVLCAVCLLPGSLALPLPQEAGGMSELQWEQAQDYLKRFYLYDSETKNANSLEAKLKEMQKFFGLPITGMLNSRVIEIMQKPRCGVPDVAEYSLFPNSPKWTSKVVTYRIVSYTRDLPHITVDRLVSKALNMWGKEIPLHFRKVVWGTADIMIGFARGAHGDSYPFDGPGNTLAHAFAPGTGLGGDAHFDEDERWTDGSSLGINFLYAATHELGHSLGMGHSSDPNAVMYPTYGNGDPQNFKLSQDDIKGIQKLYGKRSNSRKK
Briefly: Inhibition of Matrix metalloprotease-7.

In test [1] the target is Matrix metalloproteinase-9 (Homo sapiens, UniProt P14780). Briefly: Inhibition of Matrix metalloprotease-9.
The target of a further test is T2, Interstitial collagenase (Homo sapiens, UniProt P03956).
T2 sequence (P03956 whole entry): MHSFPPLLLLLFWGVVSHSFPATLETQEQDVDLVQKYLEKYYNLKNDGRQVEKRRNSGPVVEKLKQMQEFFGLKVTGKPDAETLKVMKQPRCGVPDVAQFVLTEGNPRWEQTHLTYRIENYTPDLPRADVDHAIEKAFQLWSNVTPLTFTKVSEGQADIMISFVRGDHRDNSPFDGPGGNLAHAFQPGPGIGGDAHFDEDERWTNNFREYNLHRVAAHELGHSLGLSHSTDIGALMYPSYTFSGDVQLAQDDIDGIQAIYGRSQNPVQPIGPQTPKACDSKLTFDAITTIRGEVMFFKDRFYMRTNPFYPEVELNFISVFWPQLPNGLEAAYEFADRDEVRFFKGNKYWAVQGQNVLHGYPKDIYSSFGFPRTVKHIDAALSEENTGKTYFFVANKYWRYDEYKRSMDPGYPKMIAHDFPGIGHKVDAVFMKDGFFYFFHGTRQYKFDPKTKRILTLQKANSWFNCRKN
Nature of the test: Inhibition of Matrix metalloprotease-1.

A further test deals with Stromelysin-1 (Homo sapiens, UniProt P08254). Briefly: Inhibition of Matrix metalloprotease-3.

From ChEMBL document CHEMBL1131091, “Discovery of potent, achiral matrix metalloproteinase inhibitors” (J Med Chem, 1998) come the findings set out here.

Molecules are shown by their SMILES.

Chain of Matrix metalloproteinase-9 (P14780 whole entry): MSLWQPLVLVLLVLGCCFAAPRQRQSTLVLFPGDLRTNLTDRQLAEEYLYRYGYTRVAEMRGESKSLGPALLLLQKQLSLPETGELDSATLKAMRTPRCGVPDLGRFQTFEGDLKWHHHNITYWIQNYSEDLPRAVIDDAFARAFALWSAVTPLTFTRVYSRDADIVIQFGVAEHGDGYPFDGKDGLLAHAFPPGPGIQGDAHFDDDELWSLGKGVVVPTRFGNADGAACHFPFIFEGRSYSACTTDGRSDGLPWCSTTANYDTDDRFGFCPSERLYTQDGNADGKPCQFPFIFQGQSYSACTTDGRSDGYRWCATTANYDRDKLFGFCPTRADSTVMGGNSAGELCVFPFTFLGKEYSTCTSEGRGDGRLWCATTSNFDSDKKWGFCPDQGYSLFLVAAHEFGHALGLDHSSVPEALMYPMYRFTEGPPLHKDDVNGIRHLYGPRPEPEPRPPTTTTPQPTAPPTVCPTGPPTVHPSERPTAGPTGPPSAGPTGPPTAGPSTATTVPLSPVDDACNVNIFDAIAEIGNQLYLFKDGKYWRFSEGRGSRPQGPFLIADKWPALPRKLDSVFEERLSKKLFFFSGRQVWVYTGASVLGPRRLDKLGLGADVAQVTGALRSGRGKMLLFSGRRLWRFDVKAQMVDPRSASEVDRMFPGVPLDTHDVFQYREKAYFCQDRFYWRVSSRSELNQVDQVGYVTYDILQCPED
Chain of Stromelysin-1 (P08254 whole entry): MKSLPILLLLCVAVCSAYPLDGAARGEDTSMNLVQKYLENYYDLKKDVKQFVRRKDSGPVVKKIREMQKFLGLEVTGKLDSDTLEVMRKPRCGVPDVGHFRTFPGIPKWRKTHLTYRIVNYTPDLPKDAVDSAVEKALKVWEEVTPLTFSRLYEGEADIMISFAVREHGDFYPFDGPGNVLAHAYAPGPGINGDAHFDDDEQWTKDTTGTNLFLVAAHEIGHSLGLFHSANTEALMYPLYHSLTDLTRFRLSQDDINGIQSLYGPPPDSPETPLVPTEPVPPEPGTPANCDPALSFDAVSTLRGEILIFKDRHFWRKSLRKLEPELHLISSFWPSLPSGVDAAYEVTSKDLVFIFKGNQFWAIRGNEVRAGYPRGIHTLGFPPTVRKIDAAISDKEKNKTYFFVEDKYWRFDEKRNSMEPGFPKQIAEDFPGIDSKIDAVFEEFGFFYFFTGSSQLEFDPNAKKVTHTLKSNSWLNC

Broadly, the IC50 is the concentration that gives 50% inhibition. Low values mean greater potency, high ones weaker potency. `COc1ccc(S(=O)(=O)N2CC(C)(C)CN(S(=O)(=O)c3ccc(OC)cc3)C2C(=O)NO)cc1`: the IC50 on Matrilysin came to 30 nM; in test [1] it was 2.7 nM; on Interstitial collagenase, 24 nM.

On to `COc1ccc(S(=O)(=O)N2CC(O)CN(S(=O)(=O)c3ccc(OC)cc3)C2C(=O)NO)cc1` (stereo not drawn), for which the IC50 against Matrilysin amounted to 366 nM; in test [1], 4.7 nM; at Interstitial collagenase it was 51 nM; against Stromelysin-1, 41 nM.

Take `COc1ccc(S(=O)(=O)N2CC3(CN(S(=O)(=O)c4ccc(OC)cc4)C2C(=O)NO)SCCCS3)cc1`: the IC50 at Matrilysin stood at 123 nM; in test [1], 15.6 nM; against Interstitial collagenase it was 79 nM; against Stromelysin-1, 19.5 nM.

As to `COc1ccc(S(=O)(=O)N2CCCCN(S(=O)(=O)c3ccc(OC)cc3)C2C(=O)NO)cc1`, the figures for the IC50 at Interstitial collagenase and at Stromelysin-1 were 827 nM and 1290 nM, respectively.

Regarding `COc1ccc(S(=O)(=O)N2CCN(S(=O)(=O)c3ccc(OC)cc3)C2C(=O)NO)cc1`, the results for the 50% inhibitory concentration (IC50) against Interstitial collagenase and against Stromelysin-1 were 4650 nM and 1060 nM, respectively.

For `COc1ccc(S(=O)(=O)N2CCCN(S(=O)(=O)c3ccc(OC)cc3)C2C(=O)NO)cc1`, the IC50 amounted to 460 nM against Matrilysin, 3.9 nM in test [1], 79 nM against Interstitial collagenase and 33 nM on Stromelysin-1.

Turning to `CCCCOc1ccc(S(=O)(=O)N2CC(C)(C)CN(S(=O)(=O)c3ccc(OCCCC)cc3)C2C(=O)NO)cc1`, the IC50 against Matrilysin turned out to be 716 nM; in test [1], 101 nM; at Stromelysin-1 it was 22 nM.

On Matrilysin, `COc1ccc(S(=O)(=O)N(Cc2cccnc2)[C@@H](C(=O)NO)C(C)C)cc1` [CGS-27023A] returned a half-inhibitory concentration (IC50) of 106 nM.
